Legend:
mouse MTHFR = target: T1, mouse MTHFR (Mus musculus, UniProt Q9WU20); test: analytical size exclusion chromatography / DSF; type: binding
T1 sequence (Q9WU20 357-654): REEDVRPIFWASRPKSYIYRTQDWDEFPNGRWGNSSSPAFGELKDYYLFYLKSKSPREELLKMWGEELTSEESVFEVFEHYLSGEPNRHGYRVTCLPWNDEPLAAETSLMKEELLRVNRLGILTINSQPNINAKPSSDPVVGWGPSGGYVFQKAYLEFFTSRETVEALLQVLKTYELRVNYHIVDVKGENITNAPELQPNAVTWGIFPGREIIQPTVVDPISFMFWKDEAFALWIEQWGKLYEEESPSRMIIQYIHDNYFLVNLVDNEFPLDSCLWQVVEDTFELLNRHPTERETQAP

[1] = target: T2, 5,10-methylenetetrahydrofolate reductase (MTHFR) (Homo sapiens, UniProt P42898, A368L); test: differential scanning fluorimetry; aSEC; type: binding
T2 construct: HsMTHFR348–656
T2 sequence (P42898 348-656 A368L): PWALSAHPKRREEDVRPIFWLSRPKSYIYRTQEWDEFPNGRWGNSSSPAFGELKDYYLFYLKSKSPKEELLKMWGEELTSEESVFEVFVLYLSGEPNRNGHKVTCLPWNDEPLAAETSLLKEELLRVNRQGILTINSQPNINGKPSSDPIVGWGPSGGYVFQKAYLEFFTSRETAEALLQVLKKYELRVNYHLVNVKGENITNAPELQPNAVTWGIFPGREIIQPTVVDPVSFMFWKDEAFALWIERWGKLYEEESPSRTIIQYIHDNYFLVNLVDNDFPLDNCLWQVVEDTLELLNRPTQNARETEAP

[2] = target: T3, 5,10-methylenetetrahydrofolate reductase (MTHFR) (Homo sapiens, UniProt P42898); test: HPLC-based enzyme activity assay; also native MS, DSF and aSEC; type: biochemical; details: read-out: Inhibition (μM) / SAM Ki (95% CI)
T3 construct: HsMTHFR1–656 (phosphorylated, as purified)

Ki [2] | SMILES | analytical size exclusion chromatography / DSF (mouse MTHFR) | differential scanning fluorimetry; aSEC [1]
 | Nc1ncnc2c1ncn2[C@@H]1O[C@H](CSCC[C@H](N)C(=O)O)[C@@H](O)[C@H]1O [SAH, S-adenosylhomocysteine] | A similar pattern of results were observed when using purified recombinant mouse MTHFR of the same protein boundaries | 
2.7 µM | C[S+](CC[C@H](N)C(=O)[O-])C[C@H]1O[C@@H](n2cnc3c(N)ncnc32)[C@H](O)[C@@H]1O (stereo partly shown) [SAM, S-adenosylmethionine] | A similar pattern of results were observed when using purified recombinant mouse MTHFR of the same protein boundaries | p.A368L resulted in protein which retained the ability to bind SAM, but was less sensitive to change

— paper PMC5995969, “Structural basis for the regulation of human 5,10-methylenetetrahydrofolate reductase by phosphorylation and S-adenosylmethionine inhibition” (Nature Communications, 2018)
